Assay results reported in patent US20050136017A1, “Hair relaxing composition comprising at least one non-hydroxide imine” (priority 2003, published 2005).

Columns and labels:
[1] = Relaxing of naturally curly/frizzy African hair with a simplified aqueous relaxing composition
Method: (§1) A simplified relaxing composition was prepared, containing, as relaxing active agent, 1,1-dimethylbiguanide (Registry Number [1115-70-4]) at a concentration of 0.75M in water. The pH of the composition was 13.6. The composition was applied to naturally curly/frizzy African hair for 15 minutes at a temperature of 30° C.
(§2) A simplified relaxing composition was prepared, containing, as relaxing active agent, 1,1-dimethylbiguanide (Registry Number [1115-70-4]) at a concentration of 0.5M in water. The pH of the composition was 13.5. This composition was applied to naturally curly/frizzy African hair for 25 minutes at a temperature of 30° C.
(§3) A simplified relaxing composition was prepared, containing as relaxing active agent, 1,3,4,6,7,8-hexahydro-2H-pyrimido[1,2-a]pyrimidine (Registry Number [5807-14-7]) at a concentration of 0.7M in water. The pH of the composition was 13.5. This composition was applied to naturally curly/frizzy African hair for 15 minutes at a temperature of 30° C.
(§4) A simplified relaxing composition was prepared, containing as relaxing active agent, 1,3,4,6,7,8-hexahydro-2H-pyrimido[1,2-a]pyrimidine (Registry Number [5807-14-7]) at a concentration of 0.5M in water. The pH of the composition was 13.4. This composition was applied to naturally curly/frizzy African hair for 25 minutes at a temperature of 30° C.

[2] = pH of the simplified relaxing composition; assay type: physicochemical
Method: as §1, §2, §3, §4

[3] = 0.5M in water (Examples 2 and 4)

Structure (SMILES)	hair relaxing result (relaxing, combing/styling, feel) ([1]; 0.5M in water, pH 13.5, applied 25 minutes at 30° C. (Example 2))	hair relaxing result (relaxing, combing/styling, feel) ([1]; 0.75M in water, pH 13.6, applied 15 minutes at 30° C. (Example 1))	pH of the composition [2, 3]	pH of the composition ([2]; 0.75M in water (Example 1))	hair relaxing result (relaxing, combing/styling, feel) ([1]; 0.5M in water, pH 13.4, applied 25 minutes at 30° C. (Example 4))	hair relaxing result (relaxing, combing/styling, feel) ([1]; 0.7M in water, pH 13.5, applied 15 minutes at 30° C. (Example 3))	pH of the composition ([2]; 0.7M in water (Example 3))
CN(C)C(=N)NC(=N)N [1,1-dimethylbiguanide]	efficiently relaxed, easy to comb and style, and felt soft	efficiently relaxed, easy to comb and style, and felt soft	13.5	13.6			
C1CN=C2NCCCN2C1 [1,3,4,6,7,8-hexahydro-2H-pyrimido[1,2-a]pyrimidine]			13.4		efficiently relaxed, easy to comb and style, and felt soft	efficiently relaxed, easy to comb and style, and felt soft	13.5
